Laboratory results taken from US20220096516A1, “OLIGONUCLEOTIDE MOLECULE AND APPLICATION THEREOF IN TUMOR THERAPY” (Ractigen Therapeutics, priority 2019, published 2022).
d = 2'-deoxy (DNA); r = 2'-OH (RNA)

Key:
[1] = test system: U87MG transplanted tumor; assay: U87MG transplanted tumor growth in nude mice; set-up: species or system BALB/c nude mice; settings: U87MG xenograft, day 13; saRNA (in vivo-jetPEI) 1 mg/kg intratumor days 1, 4, 7, 10; regorafenib 3 mg/kg intragastric daily day 1-12; control 406%
Procedure: To prepare the saRNA formulation, in vivo-jetPEI (201-10G, Polyplus-transfection, France) was adopted as an saRNA delivery system. The preparation process is briefly described as follows: an saRNA was first diluted in a 10% glucose solution to give a solution A; a required amount of in vivo-jetPEI was diluted in 10% glucose solution to give a solution B; then, equal volumes of the solution A and the solution B were mixed (nitrogen-to-phosphorus ratio: 8; final concentration of glucose: 5%). After mixing the mixture was let to stand under room temperature for 15 minutes for later use.
The glioma cell line U87MG were grown to the logarithmic phase, counted, then subcutaneously inoculated at a concentration of 9×10^7 cells/mL into the right armpit of BALB/c nude mice at 0.1 mL per mouse. […] After the initial administration, the long diameter and short diameter of each tumor were measured with a vernier caliper every two days. The tumor volume was calculated according to the formula V=(l×w^2)/2, wherein 1 represents the longest diameter of the tumor and w represents the diameter parallel to the surface of the tumor and perpendicular to the long diameter. A tumor growth curve and size and morphology of the tumor anatomy were recorded during the administration.

[2] = test system: HepG2 transplanted tumor; assay: HepG2 transplanted tumor growth in nude mice; set-up: species or system BALB/c nude mice; settings: HepG2 xenograft, day 13; saRNA (in vivo-jetPEI) 1 mg/kg intratumor days 1, 4, 7, 10; regorafenib 3 mg/kg intragastric daily day 1-12; vehicle 118%
Procedure: To prepare the saRNA formulation, the in vivo-jetPEI (201-10G, Polyplus-transfection, France) was adopted as an saRNA delivery system. The preparation process is briefly described as follows. An saRNA was first diluted in 10% glucose solution to obtain a solution A. According to the instructions of the manufacturer, a required amount of in vivo-jetPEI was diluted in 10% glucose solution to obtain a solution B. Equal volumes of the solution A and the solution B were mixed (nitrogen-to-phosphorus ratio: 8; final concentration of glucose: 5%). After mixing, the mixture was let to stand at room temperature for 15 minutes for later use.
HepG2 cells in the logarithmic growth phase were obtained and counted, and then the cell suspension was regulated to 5×10^7 cells/mL and subcutaneously inoculated into the right armpit of BALB/c nude mice at a volume of 0.1 mL per mouse. […] Starting from the initial administration, the long diameter and the short diameter of each tumor were measured with a vernier caliper every two days. The tumor volume was calculated according to the formula V=(l×w^2)/2, wherein 1 represents the longest diameter of the tumor and w represents the diameter parallel to the surface of the tumor and perpendicular to the long diameter. A tumor growth curve and size and morphology of the tumor after anatomy were recorded during the administration.

[3] = test system: glioma cell line U87MG; assay: Cell viability by CCK-8 method, U87MG; format: cell-based, human; settings: 10 nM, 72 h, FIG. 7B
Procedure: (§1) 8 LHPP promoter-targeting saRNAs were individually transfected into cancer cells at 10 nM for 72 h. In FIG. 7A, the expression level of LHPP mRNA was analyzed by RT-qPCR. In FIG. 7B, cell viability in the saRNA treatment group was evaluated by the CCK-8 method and recorded as a percentage relative to the viability of cells in a control (Mock) treatment group.
(§2) The cell viability was detected by the following CCK-8 method: the cCells were plated into a 96-well plate at 3-5×10^3 cells/well, cultured overnight, and transfected with the oligonucleotide duplexes. After 72 hour of transfection, 10 uL of CCK-8 solution (Dojindo Molecular Technologies) was added into each well. After 1 hour of incubation at 37° C., a microplate reader was used to measure absorbances at 450 nm.
(§3) In order to further evaluate the effect of LHPP saRNAs in inducing the mRNA expression of the LHPP gene and inhibiting the proliferation of cancer cells, eight screened saRNAs (RAG7-132, RAG7-133, RAG7-139, RAG7-177, RAG7-178, RAG7-694, RAG7-707 and RAG7-892) each were transfected into the liver cancer cell lines Huh7 (Medical Cell Resource Center, Tohoku University, Japan), HepG2 (ATCC), Hep3B (ATCC), Li-7 (Medical Cell Resource Center, Tohoku University, Japan) and SK-HEP-1 (ATCC), a lung cancer cell line A549 (ATCC), a bladder cancer cell line T24 (ATCC), a prostatic cancer cell line PC3 (ATCC), and a glioma cell line U87MG (ATCC). The mRNA expression and cell viability of the transfected cells were measured.

[4] = test system: LHPP gene; assay: LHPP mRNA expression by RT-qPCR in cancer cell lines; format: cell-based, human; settings: 72 h
Procedure: as §1, with “into liver” for “into”, “6A,” for “7A,”, “6B,” for “7B,”
as §1, §3

[5] = test system: bladder cancer cell line T24; assay: Cell viability by CCK-8 method, T24; format: cell-based, human; settings: T24, 10 nM, 72 h, FIG. 7B
Procedure: as §1, §2, §3

[6] = test system: LHPP gene; assay: High-throughput screening of saRNAs targeting LHPP promoter: LHPP mRNA by one-step RT-qPCR in Huh7 cells; format: cell-based, human; settings: 10 nM saRNA, 72 hours, relative to control (Mock)
Outline: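 Huh7 cells were transfected with 10 nM saRNA using RNAiMax and lysed 72 h later. LHPP mRNA was quantified by one-step RT-qPCR in triplicate wells. Expression was normalised to HPRT1 and TBP and given as fold change versus mock-transfected cells.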

[7] = test system: lung cancer cell line A549; assay: Cell viability by CCK-8 method, A549; format: cell-based, human; settings: A549, 10 nM, 72 h, FIG. 7B
Procedure: as §1, §2, §3

[8] = test system: prostatic cancer cell line PC3; assay: Cell viability by CCK-8 method, PC3; format: cell-based, human; settings: PC3, 10 nM, 72 h, FIG. 7B
Procedure: as §1, §2, §3

[9] = test system: SK-HEP-1 cells; assay: Cell viability by CCK-8 method, SK-HEP-1; format: cell-based, human; settings: SK-HEP-1, 10 nM, 72 h, FIG. 6B
Procedure: as §1, with “into liver” for “into”, “6A,” for “7A,”, “6B,” for “7B,”
as §2, with “nm. […]” for “nm.”

[10] = test system: Hep3B cells; assay: Cell viability by CCK-8 method, Hep3B; format: cell-based, human; settings: 10 nM, 72 h, FIG. 6B
Procedure: as §1, with “into liver” for “into”, “6A,” for “7A,”, “6B,” for “7B,”
as §2, with “nm. […]” for “nm.”

[11] = test system: Huh7 cells; assay: Cell viability by CCK-8 method, Huh7; format: cell-based, human; settings: Huh7, 10 nM, 72 h, FIG. 6B
Procedure: The 290 saRNAs targeting the LHPP promoter were individually transfected into Huh7 cells, and 72 hour later, one-step RT-qPCR was employed to analyze the expression levels of LHPP mRNA and cell viability was detected by the CCK-8 method.
as §2, §3

[12] = test system: HepG2 cells; assay: Cell viability by CCK-8 method, HepG2; format: cell-based, human; settings: HepG2, 10 nM, 72 h, FIG. 6B
Procedure: as §1, with “into liver” for “into”, “6A,” for “7A,”, “6B,” for “7B,”
as §2, with “nm. […]” for “nm.”

Molecule	tumor volume increase compared with that at the beginning of treatment [1] [%]	tumor volume increase compared with that at the beginning of treatment [2] [%]	cell proliferation (cell viability, CCK-8) [3]	expression of LHPP gene (mRNA) ([4]; A549, 10 nM, FIG. 7A)	expression of LHPP gene (mRNA) ([4]; T24, 10 nM, FIG. 7A)	expression of LHPP gene (mRNA) ([4]; U87MG, 10 nM, FIG. 7A)	cell proliferation (cell viability, CCK-8) [5]	Fold of changes in relative LHPP mRNA expression level [6] [fold]	Fold of changes in relative LHPP mRNA expression level (log2) [6] [log2]	cell proliferation (cell viability, CCK-8) [7]	expression of LHPP gene (mRNA) ([4]; PC3, 10 nM, FIG. 7A)	cell proliferation (cell viability, CCK-8) [8]	expression of LHPP gene (mRNA) ([4]; Hep3B, 10 nM, FIG. 6A)	expression of LHPP gene (mRNA) ([4]; HepG2, 10 nM, FIG. 6A)	expression of LHPP gene (mRNA) ([4]; Huh7, 10 nM, FIG. 6A)	expression of LHPP gene (mRNA) ([4]; SK-HEP-1, 10 nM, FIG. 6A)	cell proliferation (cell viability, CCK-8) [9]	cell proliferation (cell viability, CCK-8) [10]	cell proliferation (cell viability, CCK-8) [11]	cell proliferation (cell viability, CCK-8) [12]
CNC(=O)c1cc(Oc2ccc(NC(=O)Nc3ccc(Cl)c(C(F)(F)F)c3)c(F)c2)ccn1 [regorafenib, Regorafenib, reference compound]	251	70	–	–	–	–	–	–	–	–	–	–	–	–	–	–	–	–	–	–
RAG7-177: saRNA duplex; sense AUUUGCCUUUGACCUUUCUTT (SEQ ID NO: 6), antisense AGAAAGGUCAAAGGCAAAUTT (SEQ ID NO: 170) (sugars from the 5' end r19 d2, backbone not given here)	–	–	inhibited cell proliferation	induced the expression of LHPP gene to different degrees	induced the expression of LHPP gene to different degrees	induced the expression of LHPP gene to different degrees	inhibited cell proliferation	1.74	0.80	inhibited cell proliferation	–	–	–	–	–	–	–	–	–	–
RAG7-178: saRNA duplex; sense AAUUUGCCUUUGACCUUUCTT (SEQ ID NO: 5), antisense GAAAGGUCAAAGGCAAAUUTT (SEQ ID NO: 169) (sugars from the 5' end r19 d2, backbone not given here)	–	–	inhibited cell proliferation	induced the expression of LHPP gene to different degrees	–	induced the expression of LHPP gene to different degrees	–	1.76	0.82	inhibited cell proliferation	induced the expression of LHPP gene to different degrees	inhibited cell proliferation	–	–	–	–	–	–	–	–
RAG7-694: saRNA duplex; sense AGGUCCUAUGCAUCCUCAUTT (SEQ ID NO: 3), antisense AUGAGGAUGCAUAGGACCUTT (SEQ ID NO: 167) (sugars from the 5' end r19 d2, backbone not given here)	–	–	–	induced the expression of LHPP gene to different degrees	induced the expression of LHPP gene to different degrees	–	inhibited cell proliferation	1.88	0.91	inhibited cell proliferation	induced the expression of LHPP gene to different degrees	inhibited cell proliferation	induced the expression of LHPP gene to different degrees	induced the expression of LHPP gene to different degrees	induced the expression of LHPP gene to different degrees	induced the expression of LHPP gene to different degrees	inhibited cell proliferation	inhibited cell proliferation	inhibited cell proliferation	inhibited cell proliferation
